Patent US20170362228A1, “TETRAHYDRO-PYRIDO[3,4-b]INDOLE ESTROGEN RECEPTOR MODULATORS AND USES THEREOF” (Genentech, Inc., priority 2016, published 2017)
Where two headings read alike, the source gives them in different places.

Tests used:
[1] = target: T1, estrogen receptor alpha (ESR1) (Homo sapiens, UniProt P03372); test: Breast Cancer Cell ERa High Content Fluorescence Imaging Degradation Assay (Example 901); format: cell-based; conditions: MCF7 breast cancer cells, 4 hours, plateau of the maximal effect
T1 construct: endogenous in cells; host or cells: MCF7 breast cancer cells
T1 sequence (P03372 1-595): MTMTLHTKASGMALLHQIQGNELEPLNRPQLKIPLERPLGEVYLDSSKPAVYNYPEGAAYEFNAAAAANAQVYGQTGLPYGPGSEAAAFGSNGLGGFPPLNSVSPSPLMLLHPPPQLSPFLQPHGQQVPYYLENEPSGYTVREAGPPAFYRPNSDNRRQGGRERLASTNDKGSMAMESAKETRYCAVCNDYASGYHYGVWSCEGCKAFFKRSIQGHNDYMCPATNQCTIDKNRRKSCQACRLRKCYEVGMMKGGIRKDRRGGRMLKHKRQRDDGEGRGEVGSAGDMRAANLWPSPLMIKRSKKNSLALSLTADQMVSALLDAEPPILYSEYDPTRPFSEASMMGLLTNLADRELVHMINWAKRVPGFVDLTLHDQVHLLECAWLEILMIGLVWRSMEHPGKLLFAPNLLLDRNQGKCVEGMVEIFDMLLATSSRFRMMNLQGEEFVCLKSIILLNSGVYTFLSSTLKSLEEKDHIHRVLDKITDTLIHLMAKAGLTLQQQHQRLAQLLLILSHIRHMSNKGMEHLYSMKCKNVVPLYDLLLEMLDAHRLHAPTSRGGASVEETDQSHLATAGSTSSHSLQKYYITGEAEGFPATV
Experimental: MCF7 breast cancer cells were seeded on day 1 at a density of 10,000 cells per well in 384 well poly-lysine coated tissue culture plate (Greiner # T-3101-4), in 50 μL/well RPMI (phenol red free), 10% FBS (Charcoal stripped), containing L-glutamine. On day 2, compounds were prepared at 2 compound source concentrations: 100 μM and 1 μM (ultimately to give 2 overlapping titration curves), in a Labcyte low dead volume plate, 10 μL/well, and 10 μL of DMSO in designated wells for backfill, and 5 μM Fulvestrant (control compound) in designated wells. Compounds and controls were dispensed using a Labcyte Echo acoustic dispenser to dispense compounds with a predefined serial dilution (1.8×, 10 point, in duplicate) and appropriate backfill and control compounds (final total volume transferred was 417.5 nL and compound dispense volume ranges from 2.5 nL to 417.5 nL; 0.84% DMSO (v/v) final), ultimately producing a concentration range from 0.05 nM to 835 nM. Cell plates were incubated at 37° C., for 4 hours. Fixation and permeabilization were carried out using a Biotek EL406 plate washer and dispenser as follows. Cells were fixed by addition of 15 μL of 16% paraformaldehyde (Electron Microscopy Sciences #15710-S) directly to the 50 μL cell culture medium in each well using the peristaltic pump 5 μL cassette on a Biotek EL406 (final concentration of formaldehyde was 3.7% w/v). Samples were incubated 30 minutes. Well contents was aspirated and 50 μL/well of Phosphate Buffered Saline (PBS) containing 0.5% w/v bovine serum albumen, 0.5% v/v Triton X-100 (Antibody Dilution Buffer) was added to each well. Samples were incubated for 30 minutes. Well contents were aspirated and washed 3 times with 100 μL/well of PBS. Immunofluorescence staining of estrogen receptor alpha (ESR1) was carried out using a Biotek EL406 plate washer and dispenser as follows. The well supernatant was aspirated from the wells and 25 μL/well of anti-ESR1 mAb (F10) (Santa Cruz sc-8002) diluted 1:1000 in Antibody Dilution Buffer was dispensed. Samples were incubated for 2 hours at room temperature. Samples were washed 4 times with 100 μL/well of PBS. 25 uL/well of secondary antibody solution (Alexafluor 488 conjugate anti-mouse IgG (LifeTechnologies #A21202) diluted 1:1000 and Hoechst 33342 1 μg/ml diluted in Antibody Dilution Buffer) were dispensed into each well. Samples were incubated for 2 hours at room temperature. Samples were washed 3 times with 100 μL/well of PBS using a Biotek EL406. Quantitative fluorescence imaging of ESR1 was carried out using a Cellomics Arrayscan V (Thermo). Fluorescence images of the samples (Channel 1: XF53 Hoechst (DNA stain); Channel 2: XF53 FITC (ESR1 stain)) were acquired using a Cellomics VTI Arrayscan using the Bioapplication “Compartmental Analysis” using the auto-exposure (based on DMSO control wells) setting “peak target percentile” set to 25% target saturation for both channels. Channel 1 (DNA stain) was used to define the nuclear region (Circ). Measurements of “Mean_CircAvgIntCh2”, which is the Alexafluor 488 fluorescence intensity (ESR1) within the nuclear region, was measured on a per cell basis and averaged over all the measured cells. Data analysis was carried out using Genedata Screener Software, with DMSO and 5 nM Fulvestrant treated samples being used to define the 0% and 100% changes in ESR1. The “Robust Fit” method was used to define the inflexion point of curve (EC50) and the plateau of the maximal effect (Sinf). Degradation data for exemplary Formula I compounds is reported as ER-alpha MCF7 HCS Sinf(%) values in Table 1.

MCF7 cells = test: In vitro cell proliferation assays (Examples 902 and 903), MCF7; format: cell-based; conditions: read-out: ER-alpha MCF7 HCS (EC50)
Experimental: Efficacy of estrogen receptor modulator compounds and chemotherapeutic compounds are measured by a cell proliferation assay employing the following protocol (Mendoza et al (2002) Cancer Res. 62:5485-5488).
The CellTiter-Glo® Luminescent Cell Viability Assay is a homogeneous method to determine the number of viable cells in culture based on quantitation of the ATP present, which signals the presence of metabolically active cells. The CellTiter-Glo® Assay is designed for use with multiwell plate formats, making it ideal for automated high-throughput screening (HTS), cell proliferation and cytotoxicity assays. The homogeneous assay procedure involves adding a single reagent (CellTiter-Glo® Reagent) directly to cells cultured in serum-supplemented medium. Cell washing, removal of medium or multiple pipetting steps are not required. The Cell Titer-Glo® Luminescent Cell Viability Assay, including reagents and protocol are commercially available (Promega Corp., Madison, Wis., Technical Bulletin TB288).
The assay assesses the ability of compounds to enter cells and inhibit cell proliferation. The assay principle is based on the determination of the number of viable cells present by quantitating the ATP present in a homogenous assay where addition of the Cell TiterGlo® reagent results in cell lysis and generation of a luminescent signal through the luciferase reaction. The luminescent signal is proportional to the amount of ATP present.
Procedure: Day 1—Seed Cell Plates (384-well black, clear bottom, microclear, TC plates with lid from Falcon #353962), Harvest cells, Seed cells at 1000 cells per 54 μl per well into 384 well Cell Plates for 3 days assay. Cell Culture Medium: RPMI or DMEM high glucose, 10% Fetal Bovine Serum, 2 mM L-Glutamine, P/S. Incubate 0/N (overnight) at 37° C., 5% CO2.
Day 2—Add Drug to Cells, Compound Dilution, DMSO Plates (serial 1:2 for 9 points). Add 20 μl of compound at 10 mM in the 2nd column of 96 well plate. Perform serial 1:2 across the plate (10 μl+20 μl 100% DMSO) for a total of 9 points using Precision Media Plates 96-well conical bottom polypropylene plates from Nunc (cat.#249946) (1:50 dilution). Add 147 μl of Media into all wells. Transfer 3 μl of DMSO+compound from each well in the DMSO Plate to each corresponding well on Media Plate using Rapidplate® (Caliper, a Perkin-Elmer Co.). For 2 drug combination studies, transfer one drug 1.5 μl of DMSO+compound from each well in the DMSO Plate to each corresponding well on Media Plate using Rapidplate. Then, transfer another drug 1.5 μl to the medium plate.
Drug Addition to Cells, Cell Plate (1:10 dilution): Add 6 μl of media+compound directly to cells (54 μl of media on the cells already). Incubate 3 days at 37° C., 5% CO2 in an incubator that will not be opened often.
Day 5—Develop Plates, Thaw Cell Titer Glo Buffer at room temperature: Remove Cell Plates from 37° C. and equilibrate to room temperature for about 30 minutes. Add Cell Titer-Glo® Buffer to Cell Titer-Glo® Substrate (bottle to bottle). Add 30 μl Cell Titer-Glo® Reagent (Promega cat.# G7572) to each well of cells. Place on plate shaker for about 30 minutes. Read luminescence on Analyst HT Plate Reader (half second per well).
Cell viability assays and combination assays: Cells were seeded at 1000-2000 cells/well in 384-well plates for 16 h. On day two, nine serial 1:2 compound dilutions were made in DMSO in a 96 well plate. The compounds were further diluted into growth media using a Rapidplate® robot (Zymark Corp., Hopkinton, Mass.). The diluted compounds were then added to quadruplicate wells in 384-well cell plates and incubated at 37° C. and 5% CO2. After 4 days, relative numbers of viable cells were measured by luminescence using Cell Titer-Glo® (Promega) according to the manufacturer's instructions and read on a Wallac Multilabel Reader® (PerkinElmer, Foster City). EC50 values were calculated using Prism® 4.0 software (GraphPad, San Diego). […]

[2] = Table 1a, DMSO and Fulvestrant define 0% and 100% changes in ESR1

Q: For C[C@@H]1Cc2c([nH]c3c(F)cccc23)[C@@H](c2c(F)cc([C@H](O)C3CN(CCCF)C3)cc2F)N1CC(F)(F)CO (single isomer, unassigned) [Compound 133], which “ER-alpha MCF7 HCS (S inf)” value [1, 2] is on record?
A: −95.88%

Q: What about the EC50 (MCF7 cells; Homo sapiens, MCF7, Table 1a) of the same compound?
A: 0.083 nM

Q: Which “ER-alpha MCF7 HCS (S inf)” value [1, 2] does the source give for C[C@@H]1Cc2c([nH]c3c(F)cccc23)[C@@H](c2c(F)cc([C@@H](O)C3CN(CCCF)C3)cc2F)N1CC(F)(F)CO (single isomer, unassigned) [Compound 134] here?
A: −94.44%

Q: What about the EC50 (MCF7 cells; Homo sapiens, MCF7, Table 1a) of the same compound?
A: 0.137 nM

Q: For C[C@@H]1Cc2c([nH]c3ccccc23)[C@@H](c2c(F)cc([C@@H](O)C3CN(CCCF)C3)cc2F)N1CC(F)(F)CO (single isomer, unassigned) [Compound 135], which “ER-alpha MCF7 HCS (S inf)” value [1, 2] is on record?
A: −99.46%

Q: What about the EC50 (MCF7 cells; Homo sapiens, MCF7, Table 1a) of the same compound?
A: 0.039 nM

Q: What does the source list for C[C@@H]1Cc2c([nH]c3ccccc23)[C@@H](c2c(F)cc([C@H](O)C3CN(CCCF)C3)cc2F)N1CC(F)(F)CO (single isomer, unassigned) [Compound 136]?
A: ER-alpha MCF7 HCS (S inf) [1, 2]: −99.81%; EC50 (MCF7 cells; Homo sapiens, MCF7, Table 1a): 0.066 nM

Q: For C[C@@H]1Cc2c([nH]c3ccccc23)[C@@H](c2c(F)cc([C@H](O)C3CN(CCCF)C3)cc2F)N1C[C@@H](F)CO (single isomer, unassigned) [Compound 137], which “ER-alpha MCF7 HCS (S inf)” value [1, 2] is on record?
A: −100.96%

Q: What about the EC50 (MCF7 cells; Homo sapiens, MCF7, Table 1a) of the same compound?
A: 0.074 nM

Q: Which “ER-alpha MCF7 HCS (S inf)” value [1, 2] does the source give for C[C@@H]1Cc2c([nH]c3ccccc23)[C@@H](c2c(F)cc([C@@H](O)C3CN(CCCF)C3)cc2F)N1C[C@@H](F)CO (single isomer, unassigned) [Compound 138] here?
A: −97.67%

Q: And the EC50 (MCF7 cells; Homo sapiens, MCF7, Table 1a)?
A: 0.276 nM

Q: For C[C@@H]1Cc2c([nH]c3ccccc23)[C@@H](c2c(F)cc([C@H](O)C3CN(CCCF)C3)cc2F)N1C[C@H](F)CO (single isomer, unassigned) [Compound 140], which “ER-alpha MCF7 HCS (S inf)” value [1, 2] is on record?
A: −95.81%

Q: What about the EC50 (MCF7 cells; Homo sapiens, MCF7, Table 1a) of the same compound?
A: 0.989 nM

Q: C[C@@H]1Cc2c([nH]c3cc(F)ccc23)[C@@H](c2c(F)cc([C@H](O)C3CN(CCCF)C3)cc2F)N1CC(F)(F)CO (single isomer, unassigned) [Compound 142] was tested. Which “ER-alpha MCF7 HCS (S inf)” value [1, 2] did it give?
A: −100%

Q: What about the EC50 (MCF7 cells; Homo sapiens, MCF7, Table 1a) of the same compound?
A: 0.065 nM

Q: Which results are given for C[C@@H]1Cc2c([nH]c3ccccc23)[C@@H](c2c(F)cc([C@H](F)C3CN(CCCF)C3)cc2F)N1C[C@@H](F)CO (single isomer, unassigned) [Compound 156]?
A: ER-alpha MCF7 HCS (S inf) ([1]; Table 1b): −102%; EC50 (MCF7 cells; Homo sapiens, MCF7, Table 1b): 0.055 nM

Q: Which “ER-alpha MCF7 HCS (S inf)” value ([1]; Table 1b) does the source give for C[C@@H]1Cc2c([nH]c3ccccc23)[C@@H](c2c(F)cc([C@@H](F)C3CN(CCCF)C3)cc2F)N1C[C@@H](F)CO (single isomer, unassigned) [Compound 157] here?
A: −100%

Q: What about the EC50 (MCF7 cells; Homo sapiens, MCF7, Table 1b) of the same compound?
A: 0.078 nM

Q: Which “ER-alpha MCF7 HCS (S inf)” value ([1]; Table 1b) does the source give for C[C@@H]1Cc2c([nH]c3ccccc23)[C@@H](c2c(F)cc([C@@H](O)C3CN(CCCF)C3)cc2F)N1CC(F)CF (stereo in doubt) [Compound 160, (S)-(4-((1R,3R)-2-((R)-2,3-difluoropropyl)-3-methyl-2,3,4,9-tetrahydro-1H-pyrido[3,4-b]indol-1-yl)-3,5-difluorophenyl)(1-(3-fluoropropyl)azetidin-3-yl)methanol] here?
A: −101%

Q: What about the EC50 (MCF7 cells; Table 1b) of the same compound?
A: 0.032 nM

Q: What does the source list for C[C@@H]1Cc2c([nH]c3ccccc23)[C@@H](c2c(F)cc([C@H](F)C3CN(CCCF)C3)cc2F)N1CC(C)(C)F [Compound 103, (1R,3R)-1-(2,6-difluoro-4-((R)-fluoro(1-(3-fluoropropyl)azetidin-3-yl)methyl)phenyl)-2-(2-fluoro-2-methylpropyl)-3-methyl-2,3,4,9-tetrahydro-1H-pyrido[3,4-b]indole]?
A: ER-alpha MCF7 HCS (S inf) [1, 2]: −94.25%; EC50 (MCF7 cells; Homo sapiens, MCF7, Table 1a): 0.12 nM

Q: Which “ER-alpha MCF7 HCS (S inf)” value [1, 2] does the source give for C[C@@H]1Cc2c([nH]c3ccccc23)[C@@H](c2c(F)cc(C(O)C3CN(CCCF)C3)cc2F)N1CC(F)(F)CO (stereo partly drawn) [Compound 106, 3-((1R,3R)-1-(2,6-difluoro-4-((1-(3-fluoropropyl)azetidin-3-yl)(hydroxy)methyl)phenyl)-3-methyl-1,3,4,9-tetrahydro-2H-pyrido[3,4-b]indol-2-yl)-2,2-difluoropropan-1-ol] here?
A: −98.3%

Q: What about the EC50 (MCF7 cells; Homo sapiens, MCF7, Table 1a) of the same compound?
A: 0.035 nM
